Experiments:
[1] = system: Arabidopsis PSB-D suspension cultured cells; test: Ethylene production of suspension cultured cells; format: cell-based, Arabidopsis thaliana
AtACO2 [2] = target: T1, AtACO2 (Arabidopsis thaliana, UniProt Q41931); test: Isothermal titration calorimetry; format: binding; conditions: ITC, in the presence of Zn2+, 25 °C; read-out: dissociation constant (KD), AtACO2
Description: ITC experiments were performed using a MicroCal iTC200 (GE Healthcare) at 25 °C. Small molecules and proteins were in the same buffer containing 25 mM Bis–Tris (pH 6.0), 150 mM NaCl, 0.1 mM ZnCl2 (or 0.2 mM FeSO4 for POA and AtACO2). The concentration of small molecules in the syringe was 1 mM, and the concentration of proteins in the cell was 90 μM. Data were analysed with a one-site model using Origin 7.0 (OriginLab).

[3] = system: ethylene production of Arabidopsis seedlings; test: Measurement of ethylene production of seedlings (GC-FID); format: in vivo, Arabidopsis thaliana; conditions: Supplementary Fig. 10
Description: Ethylene production was determined as follows: 30 3-day-old etiolated or 5-day-old green seedlings of Col-0, eto1-2 or other mutants were selected randomly and sealed in a 30 ml vial containing 3 ml liquid MS medium supplemented with indicated treatments. The vial was sealed with a rubber stopper for 24 h at 22 °C prior to ethylene sampling. A 250 μl sample of the headspace gas was withdrawn using a gas-tight syringe from each chamber through the septum stopper, and injected into a gas chromatograph (Agilent 6890NGC, Agilent Technologies, USA) that was equipped with a HP-PLOTQ column (40 m × 530 μm × 40 μm) and a flame ionization detector (FID)[44]. Separations were carried out at 60 °C using N2 as the carrier gas. The area of the ethylene peak was integrated with Agilent Chemstation and results were expressed as the average relative ethylene production (%) of each treatment.

AtACO2 [4] = target: T1, AtACO2; test: ACO enzymatic activity assay and kinetic analysis (ethylene by GC-FID); format: biochemical; conditions: 200 μM

T1 sequence (Q41931 1-303): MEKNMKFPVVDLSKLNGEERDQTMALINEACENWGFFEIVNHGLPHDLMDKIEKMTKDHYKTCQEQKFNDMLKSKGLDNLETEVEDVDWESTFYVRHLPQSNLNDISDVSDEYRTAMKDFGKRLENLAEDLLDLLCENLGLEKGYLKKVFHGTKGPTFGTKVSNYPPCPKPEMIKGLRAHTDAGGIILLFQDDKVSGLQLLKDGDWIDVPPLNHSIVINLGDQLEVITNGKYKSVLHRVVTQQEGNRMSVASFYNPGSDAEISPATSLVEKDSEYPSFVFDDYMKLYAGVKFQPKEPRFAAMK

In the case of `O=C(O)c1ccccn1` [2-PA, 2-picolinic acid], the “ethylene production in suspension cultured cells” value [1] is reported as “remarkably inhibited”, the Kd (AtACO2 [2]) is reported as 2800 nM and the “ethylene production in Arabidopsis seedlings” value [3] is reported as “remarkably inhibited”. For the same compound, the “inhibition effect on AtACO2 compared with POA” value (AtACO2 [4]) was “stronger than that of POA” and the “relative AtACO2 activity treated with POA derivatives” value (AtACO2 [4]) was “directly inhibited”.

In the case of `NC(=O)c1ccccn1` [2-picolinamide], the “ethylene production in suspension cultured cells” value [1] is reported as “remarkably inhibited” and the “ethylene production in Arabidopsis seedlings” value [3] is reported as “remarkably inhibited”.

With `CC(C)(N)C(=O)O` [AIB, α-aminoisobutyric acid, reference compound] the “inhibition effect on AtACO2 compared with POA” value (AtACO2 [4]) was “much weaker inhibition effect than POA”.
